Assays:
Experiment in all cases: relative viability (nuclei count vs DMSO), 5 days (fraction); higher = more cells survive
[1] = compound: CC1=C(C=CC(=C1)[N+](=O)[O-])NS(=O)(=O)C2=C(C=CC(=C2)Cl)Cl [FH535]
In short: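 Cells of lung cancer lines were placed in 1536-well plates and kept overnight at 37 °C. Pinning then delivered five library-drug doses (not always all listed), spaced by √10, onto plates anchored with vehicle, and the cells were left 5 days without changing medium. One step fixed, permeabilised and stained them with Hoechst, and MetaXpress counted nuclei in 4× images. Viability, as a median over plates, is treated-well nuclei divided by vehicle-well nuclei, with acceptance only at control CV below 25% and at least one doubling.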

[2] = compound: CC1=C(C=CC(=C1)[N+](=O)[O-])NS(=O)(=O)C2=C(C=CC(=C2)Cl)Cl [FH535] + CC1(C)CCC(c2ccc(Cl)cc2)=C(CN2CCN(c3ccc(C(=O)NS(=O)(=O)c4ccc(N[C@H](CCN5CCOCC5)CSc5ccccc5)c(S(=O)(=O)C(F)(F)F)c4)cc3)CC2)C1 [Navitoclax] (partner 0.5 µM)
In short: (§1)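 Lung cancer cell lines, seeded in 1536-well plates, were treated the following day by pin tool with a single drug or with five library-drug doses (not always all listed) in √10 steps on top of a fixed anchor-drug dose. Cells were fixed and nuclei stained in one step after 5 days, and nuclei were counted. Relative viability is the nuclei count for treated wells divided by that for vehicle wells, reported as medians of duplicate plates.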

[3] = compound: CC1=C(C=CC(=C1)[N+](=O)[O-])NS(=O)(=O)C2=C(C=CC(=C2)Cl)Cl [FH535] + C[C@]1(O)C[C@@H](c2nc(-c3ccc4ccc(-c5ccccc5)nc4c3)c3c(N)nccn32)C1 [Linsitinib] (partner 1 µM)
In short: as §1

[4] = compound: CC1=C(C=CC(=C1)[N+](=O)[O-])NS(=O)(=O)C2=C(C=CC(=C2)Cl)Cl [FH535] + CC(C)C[C@H](NC(=O)[C@H](Cc1ccccc1)NC(=O)c1cnccn1)B(O)O [Bortezomib] (partner 0.002 µM)
In short: as §1

[5] = compound: CC1=C(C=CC(=C1)[N+](=O)[O-])NS(=O)(=O)C2=C(C=CC(=C2)Cl)Cl [FH535] + C[C@@H](Oc1cc(-c2cnn(C3CCNCC3)c2)cnc1N)c1c(Cl)ccc(F)c1Cl [Crizotinib] (partner 1 µM)
In short: as §1

[6] = compound: CC1=C(C=CC(=C1)[N+](=O)[O-])NS(=O)(=O)C2=C(C=CC(=C2)Cl)Cl [FH535] + CS(=O)(=O)N1CCN(Cc2cc3nc(-c4cccc5[nH]ncc45)nc(N4CCOCC4)c3s2)CC1 [Pictilisib] (partner 1 µM)
In short: as §1

[7] = compound: CC1=C(C=CC(=C1)[N+](=O)[O-])NS(=O)(=O)C2=C(C=CC(=C2)Cl)Cl [FH535] + CS(=O)(=O)CCNCc1ccc(-c2ccc3ncnc(Nc4ccc(OCc5cccc(F)c5)c(Cl)c4)c3c2)o1 [Lapatinib] (partner 2 µM)
In short: as §1

[8] = compound: CC1=C(C=CC(=C1)[N+](=O)[O-])NS(=O)(=O)C2=C(C=CC(=C2)Cl)Cl [FH535] + COc1cc2c(Oc3ccc(NC(=O)C4(C(=O)Nc5ccc(F)cc5)CC4)cc3F)ccnc2cc1OCCCN1CCOCC1 [Foretinib] (partner 0.25 µM)
In short: as §1

[9] = compound: CC1=C(C=CC(=C1)[N+](=O)[O-])NS(=O)(=O)C2=C(C=CC(=C2)Cl)Cl [FH535] + O=C(c1cc(Cc2n[nH]c(=O)c3ccccc23)ccc1F)N1CCN(C(=O)C2CC2)CC1 [Olaparib] (partner 8 µM)
In short: as §1

[10] = compound: CC1=C(C=CC(=C1)[N+](=O)[O-])NS(=O)(=O)C2=C(C=CC(=C2)Cl)Cl [FH535] + Cc1nc(NC(=O)N2CCC[C@H]2C(N)=O)sc1-c1ccnc(C(C)(C)C(F)(F)F)c1 [Alpelisib] (partner 2 µM)
In short: as §1

Row | Cell Line | relative viability ([1]; 0.04 µM) | relative viability ([1]; 0.1265 µM) | relative viability ([1]; 0.4 µM) | relative viability ([1]; 1.265 µM) | relative viability ([2]; first compound 0.04 µM) | relative viability ([2]; first compound 0.1265 µM) | relative viability ([2]; first compound 0.4 µM) | relative viability ([2]; first compound 1.265 µM) | relative viability ([3]; first compound 0.04 µM) | relative viability ([3]; first compound 0.1265 µM) | relative viability ([3]; first compound 0.4 µM) | relative viability ([3]; first compound 1.265 µM) | relative viability ([4]; first compound 0.04 µM) | relative viability ([4]; first compound 0.1265 µM) | relative viability ([4]; first compound 0.4 µM) | relative viability ([4]; first compound 1.265 µM) | relative viability ([5]; first compound 0.04 µM) | relative viability ([5]; first compound 0.1265 µM) | relative viability ([5]; first compound 0.4 µM) | relative viability ([5]; first compound 1.265 µM) | relative viability ([6]; first compound 0.04 µM) | relative viability ([6]; first compound 0.1265 µM) | relative viability ([6]; first compound 0.4 µM) | relative viability ([6]; first compound 1.265 µM) | relative viability ([7]; first compound 0.04 µM) | relative viability ([7]; first compound 0.1265 µM) | relative viability ([7]; first compound 0.4 µM) | relative viability ([7]; first compound 1.265 µM) | relative viability ([8]; first compound 0.04 µM) | relative viability ([8]; first compound 0.1265 µM) | relative viability ([8]; first compound 0.4 µM) | relative viability ([8]; first compound 1.265 µM) | relative viability ([9]; first compound 0.04 µM) | relative viability ([9]; first compound 0.1265 µM) | relative viability ([9]; first compound 0.4 µM) | relative viability ([9]; first compound 1.265 µM) | relative viability ([10]; first compound 0.04 µM) | relative viability ([10]; first compound 0.1265 µM) | relative viability ([10]; first compound 0.4 µM) | relative viability ([10]; first compound 1.265 µM)
1 | Calu-6 | 0.938 | 1.05 | 0.956 | 0.792 | 0.912 | 0.849 | 0.772 | 0.547 | 0.972 | 1.04 | 1 | 0.814 | 0.908 | 1.03 | 0.997 | 0.772 | 0.797 | 0.814 | 0.783 | 0.601 | 1.02 | 0.911 | 0.848 | 0.748 | 1.12 | 1.14 | 1 | 0.76 | 0.815 | 0.83 | 0.877 | 0.777 | 0.583 | 0.594 | 0.532 | 0.507 | 1.07 | 0.982 | 0.866 | 0.87
2 | EBC-1 | 0.924 | 0.983 | 0.989 | 0.815 | 0.364 | 0.391 | 0.491 | 0.416 | 0.854 | 0.899 | 0.91 | 0.646 | 0.622 | 0.638 | 0.585 | 0.449 | 0.178 | 0.182 | 0.192 | 0.178 | 0.44 | 0.289 | 0.402 | 0.383 | 0.237 | 0.209 | 0.196 | 0.151 | 0.114 | – | 0.0911 | 0.101 | 0.675 | 0.657 | 0.712 | 0.566 | 0.737 | 0.82 | 0.868 | 0.816

From the supplement of paper PMC10307832
